Blank lines part the entries; values can stand above or below the molecule they belong to.
What was measured:
[1] = target: SRSF protein kinase 1 (Homo sapiens) (UniProt Q96SB4); test: Percentage SRPK1 activity remaining in the presence of 25uM inhibitor
[2] = target: T1, Serine/threonine-protein kinase Sgk1 (Homo sapiens) (UniProt O00141); test: Percentage SGK1 activity remaining in the presence of 2uM inhibitor
T1 sequence (whole entry): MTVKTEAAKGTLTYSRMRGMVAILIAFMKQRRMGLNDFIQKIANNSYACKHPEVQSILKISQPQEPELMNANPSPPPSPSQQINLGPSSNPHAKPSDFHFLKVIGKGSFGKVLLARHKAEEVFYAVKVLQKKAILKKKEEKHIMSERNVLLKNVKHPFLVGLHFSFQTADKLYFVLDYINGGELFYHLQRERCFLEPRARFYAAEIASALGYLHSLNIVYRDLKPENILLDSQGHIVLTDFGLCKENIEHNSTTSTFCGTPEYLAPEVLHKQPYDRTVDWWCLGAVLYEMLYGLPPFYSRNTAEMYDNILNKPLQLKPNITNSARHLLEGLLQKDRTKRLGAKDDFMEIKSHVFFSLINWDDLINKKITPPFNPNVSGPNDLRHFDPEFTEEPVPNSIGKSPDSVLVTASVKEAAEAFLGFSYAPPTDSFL

[3] = target: Cyclin-dependent kinase 2/cyclin A (Homo sapiens) (UniProt P24941+P20248+P78396); test: Percentage CDK2-cyclinA activity remaining in the presence of 2uM inhibitor; assay type: protein-complex assay
[4] = target: Casein kinase I isoform delta (Homo sapiens, UniProt P48730); test: Percentage CK1delta activity remaining in the presence of 2uM inhibitor
[5] = target: Mitogen-activated protein kinase 11 (Homo sapiens) (UniProt Q15759); test: Percentage p38beta activity remaining in the presence of 2uM inhibitor
[6] = target: T2, Eukaryotic elongation factor 2 kinase (Homo sapiens) (UniProt O00418); test: Percentage EF2K activity remaining in the presence of 2uM inhibitor
T2 sequence (whole entry): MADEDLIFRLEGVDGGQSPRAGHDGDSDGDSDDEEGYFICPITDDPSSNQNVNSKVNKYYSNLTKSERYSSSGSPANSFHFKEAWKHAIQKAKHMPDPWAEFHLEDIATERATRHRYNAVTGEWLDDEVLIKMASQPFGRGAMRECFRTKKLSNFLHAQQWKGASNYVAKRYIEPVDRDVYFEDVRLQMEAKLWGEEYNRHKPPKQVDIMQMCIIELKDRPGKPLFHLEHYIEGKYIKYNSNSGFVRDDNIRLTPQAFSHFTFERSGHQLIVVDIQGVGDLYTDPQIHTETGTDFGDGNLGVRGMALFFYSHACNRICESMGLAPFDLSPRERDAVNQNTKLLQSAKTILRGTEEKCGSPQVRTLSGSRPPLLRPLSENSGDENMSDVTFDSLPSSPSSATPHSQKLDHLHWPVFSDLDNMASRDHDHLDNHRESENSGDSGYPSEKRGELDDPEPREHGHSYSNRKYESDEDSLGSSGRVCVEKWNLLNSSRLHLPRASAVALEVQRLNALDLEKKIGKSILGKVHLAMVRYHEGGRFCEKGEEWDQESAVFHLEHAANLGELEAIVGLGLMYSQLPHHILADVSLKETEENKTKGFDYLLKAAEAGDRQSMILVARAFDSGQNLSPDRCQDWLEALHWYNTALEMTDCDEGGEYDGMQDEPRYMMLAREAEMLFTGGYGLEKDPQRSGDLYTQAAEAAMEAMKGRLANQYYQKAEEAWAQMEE

[7] = target: Serine/threonine-protein kinase N2 (Homo sapiens) (UniProt Q16513); test: Percentage PRK2 activity remaining in the presence of 2uM inhibitor
[8] = target: T2, Eukaryotic elongation factor 2 kinase (Homo sapiens); test: Percentage EF2K activity remaining in the presence of 3uM inhibitor
[9] = target: Tyrosine-protein kinase Yes (Homo sapiens, UniProt P07947); test: Inhibition of Yes in the presence of 20uM ATP
[10] = target: Mitogen-activated protein kinase 14 (Homo sapiens, UniProt Q16539); test: Percentage p38alpha activity remaining in the presence of 3uM inhibitor
[11] = target: Mitogen-activated protein kinase 11 (Homo sapiens) (UniProt Q15759); test: Percentage p38beta activity remaining in the presence of 3uM inhibitor
Ephrin type-A receptor 2 = Ephrin type-A receptor 2 (Homo sapiens, UniProt P29317); test: Inhibition of Eph-A2 in the presence of 50uM ATP
[12] = target: T3, Serine/threonine-protein kinase 3 (Homo sapiens) (UniProt Q13188); test: Percentage MST2 activity remaining in the presence of 3uM inhibitor
T3 sequence (whole entry): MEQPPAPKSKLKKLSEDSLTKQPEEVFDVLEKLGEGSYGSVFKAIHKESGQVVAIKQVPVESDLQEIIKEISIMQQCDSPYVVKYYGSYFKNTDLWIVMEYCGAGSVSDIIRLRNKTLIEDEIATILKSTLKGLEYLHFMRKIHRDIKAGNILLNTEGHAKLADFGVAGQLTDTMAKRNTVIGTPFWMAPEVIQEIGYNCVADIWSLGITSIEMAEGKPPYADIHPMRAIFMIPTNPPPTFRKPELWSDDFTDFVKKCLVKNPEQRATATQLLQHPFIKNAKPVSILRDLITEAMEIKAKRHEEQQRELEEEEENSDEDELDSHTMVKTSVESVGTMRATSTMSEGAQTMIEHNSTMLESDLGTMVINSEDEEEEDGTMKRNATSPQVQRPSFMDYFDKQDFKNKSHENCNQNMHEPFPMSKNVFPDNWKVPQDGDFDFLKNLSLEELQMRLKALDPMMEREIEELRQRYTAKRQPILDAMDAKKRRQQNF

[13] = target: Serine/threonine-protein kinase pim-1 (Homo sapiens, UniProt P11309); test: Percentage PIM1 activity remaining in the presence of 3uM inhibitor
[14] = target: Casein kinase II (Homo sapiens) (UniProt P67870+P68400+P19784); test: Percentage CK2 activity remaining in the presence of 3uM inhibitor; assay type: protein-complex assay
[15] = target: Mitogen-activated protein kinase 3 (Homo sapiens) (UniProt P27361); test: Percentage ERK1 activity remaining in the presence of 3uM inhibitor
[16] = target: Calcium/calmodulin-dependent protein kinase kinase 2 (Homo sapiens) (UniProt Q96RR4); test: Percentage CaMKKbeta activity remaining in the presence of 3uM inhibitor; conditions: filed as antagonist
Calcium/calmodulin-dependent protein kinase kinase 2 (Homo sapiens), sequence (Q96RR4 2-588 limits assumed): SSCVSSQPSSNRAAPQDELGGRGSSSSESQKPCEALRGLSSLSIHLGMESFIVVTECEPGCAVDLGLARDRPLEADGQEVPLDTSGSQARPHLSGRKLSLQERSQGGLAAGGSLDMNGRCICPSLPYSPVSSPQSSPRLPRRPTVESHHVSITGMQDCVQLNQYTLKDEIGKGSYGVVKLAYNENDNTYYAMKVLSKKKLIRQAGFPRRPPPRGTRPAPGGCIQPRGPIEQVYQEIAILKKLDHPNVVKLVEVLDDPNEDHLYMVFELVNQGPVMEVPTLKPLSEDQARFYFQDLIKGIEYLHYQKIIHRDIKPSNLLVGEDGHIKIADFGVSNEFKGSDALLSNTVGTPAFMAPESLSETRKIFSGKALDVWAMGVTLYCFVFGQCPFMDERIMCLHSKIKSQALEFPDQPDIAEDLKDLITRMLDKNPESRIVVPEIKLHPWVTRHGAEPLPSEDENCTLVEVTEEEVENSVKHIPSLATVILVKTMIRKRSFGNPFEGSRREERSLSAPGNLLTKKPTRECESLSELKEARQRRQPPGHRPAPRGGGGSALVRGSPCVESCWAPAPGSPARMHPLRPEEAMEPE

Mitogen-activated protein kinase 11 (Homo sapiens), sequence (Q15759 whole entry): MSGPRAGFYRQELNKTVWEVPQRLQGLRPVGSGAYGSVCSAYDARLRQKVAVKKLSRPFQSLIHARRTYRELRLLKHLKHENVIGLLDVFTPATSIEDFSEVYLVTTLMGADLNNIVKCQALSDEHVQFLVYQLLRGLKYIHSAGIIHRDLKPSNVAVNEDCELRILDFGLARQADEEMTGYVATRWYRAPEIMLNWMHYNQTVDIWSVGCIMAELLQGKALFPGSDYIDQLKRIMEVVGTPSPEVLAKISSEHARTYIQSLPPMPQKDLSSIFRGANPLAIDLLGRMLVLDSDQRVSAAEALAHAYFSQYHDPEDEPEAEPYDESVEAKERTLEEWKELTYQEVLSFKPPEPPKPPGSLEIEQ
Mitogen-activated protein kinase 14, sequence (Q16539 whole entry): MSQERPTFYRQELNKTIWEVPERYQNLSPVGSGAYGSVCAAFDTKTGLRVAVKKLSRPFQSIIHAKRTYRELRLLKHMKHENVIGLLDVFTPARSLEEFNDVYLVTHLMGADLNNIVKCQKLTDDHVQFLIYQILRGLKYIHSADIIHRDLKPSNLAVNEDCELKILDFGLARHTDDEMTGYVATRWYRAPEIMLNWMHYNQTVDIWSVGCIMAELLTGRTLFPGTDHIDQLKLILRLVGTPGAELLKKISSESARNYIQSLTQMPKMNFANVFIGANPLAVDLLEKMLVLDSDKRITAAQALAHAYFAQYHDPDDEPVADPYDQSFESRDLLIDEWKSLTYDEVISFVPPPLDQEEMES
Mitogen-activated protein kinase 3 (Homo sapiens), sequence (P27361 whole entry): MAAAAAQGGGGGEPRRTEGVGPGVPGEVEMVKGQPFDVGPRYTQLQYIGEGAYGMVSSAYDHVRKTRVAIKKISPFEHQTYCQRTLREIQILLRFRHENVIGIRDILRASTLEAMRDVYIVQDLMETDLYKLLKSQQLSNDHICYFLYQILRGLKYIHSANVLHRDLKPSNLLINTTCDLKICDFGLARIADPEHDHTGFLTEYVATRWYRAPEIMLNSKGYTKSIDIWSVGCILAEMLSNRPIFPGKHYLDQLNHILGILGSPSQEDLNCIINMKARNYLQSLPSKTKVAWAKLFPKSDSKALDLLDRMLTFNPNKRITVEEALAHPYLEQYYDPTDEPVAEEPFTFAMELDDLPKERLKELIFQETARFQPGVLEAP
SRSF protein kinase 1 (Homo sapiens), sequence (Q96SB4 whole entry): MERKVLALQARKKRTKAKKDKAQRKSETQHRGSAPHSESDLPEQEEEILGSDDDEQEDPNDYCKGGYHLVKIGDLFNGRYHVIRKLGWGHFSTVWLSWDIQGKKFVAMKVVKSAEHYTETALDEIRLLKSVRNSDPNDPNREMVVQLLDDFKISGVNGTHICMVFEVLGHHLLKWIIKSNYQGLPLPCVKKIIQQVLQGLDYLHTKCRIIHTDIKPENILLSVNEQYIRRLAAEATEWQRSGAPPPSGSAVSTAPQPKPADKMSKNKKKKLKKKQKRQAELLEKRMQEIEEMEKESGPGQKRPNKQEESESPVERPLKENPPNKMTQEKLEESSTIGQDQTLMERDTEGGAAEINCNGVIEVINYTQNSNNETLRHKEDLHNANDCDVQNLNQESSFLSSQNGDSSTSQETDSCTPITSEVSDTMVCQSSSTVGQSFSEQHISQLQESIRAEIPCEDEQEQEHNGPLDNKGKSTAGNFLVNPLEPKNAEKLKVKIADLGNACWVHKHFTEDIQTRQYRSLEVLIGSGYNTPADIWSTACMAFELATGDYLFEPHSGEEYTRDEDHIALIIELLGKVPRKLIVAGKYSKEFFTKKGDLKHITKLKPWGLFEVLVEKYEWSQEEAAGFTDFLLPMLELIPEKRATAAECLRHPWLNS
Casein kinase I isoform delta, sequence (P48730 whole entry, looked up, canonical isoform): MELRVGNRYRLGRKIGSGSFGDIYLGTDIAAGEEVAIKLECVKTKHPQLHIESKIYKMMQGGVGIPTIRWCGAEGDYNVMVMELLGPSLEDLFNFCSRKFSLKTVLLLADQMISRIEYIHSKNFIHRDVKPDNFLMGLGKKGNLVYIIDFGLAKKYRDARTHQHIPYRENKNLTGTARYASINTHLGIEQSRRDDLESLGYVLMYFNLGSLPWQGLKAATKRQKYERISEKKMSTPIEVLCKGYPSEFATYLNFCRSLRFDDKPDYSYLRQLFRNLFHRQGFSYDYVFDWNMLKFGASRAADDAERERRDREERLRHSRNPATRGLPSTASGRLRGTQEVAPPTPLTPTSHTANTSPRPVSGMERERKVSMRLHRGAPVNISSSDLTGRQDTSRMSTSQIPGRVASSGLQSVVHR
Serine/threonine-protein kinase pim-1, sequence (P11309 whole entry, looked up): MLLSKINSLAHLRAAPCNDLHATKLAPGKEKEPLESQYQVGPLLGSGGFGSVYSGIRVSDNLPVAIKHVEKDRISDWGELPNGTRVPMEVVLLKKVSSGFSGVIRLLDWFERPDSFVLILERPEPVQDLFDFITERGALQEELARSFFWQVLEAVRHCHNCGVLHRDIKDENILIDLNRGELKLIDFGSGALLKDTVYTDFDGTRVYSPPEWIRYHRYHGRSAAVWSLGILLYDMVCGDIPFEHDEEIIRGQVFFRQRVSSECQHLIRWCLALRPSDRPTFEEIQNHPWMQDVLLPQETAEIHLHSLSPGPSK
Tyrosine-protein kinase Yes, sequence (P07947 whole entry): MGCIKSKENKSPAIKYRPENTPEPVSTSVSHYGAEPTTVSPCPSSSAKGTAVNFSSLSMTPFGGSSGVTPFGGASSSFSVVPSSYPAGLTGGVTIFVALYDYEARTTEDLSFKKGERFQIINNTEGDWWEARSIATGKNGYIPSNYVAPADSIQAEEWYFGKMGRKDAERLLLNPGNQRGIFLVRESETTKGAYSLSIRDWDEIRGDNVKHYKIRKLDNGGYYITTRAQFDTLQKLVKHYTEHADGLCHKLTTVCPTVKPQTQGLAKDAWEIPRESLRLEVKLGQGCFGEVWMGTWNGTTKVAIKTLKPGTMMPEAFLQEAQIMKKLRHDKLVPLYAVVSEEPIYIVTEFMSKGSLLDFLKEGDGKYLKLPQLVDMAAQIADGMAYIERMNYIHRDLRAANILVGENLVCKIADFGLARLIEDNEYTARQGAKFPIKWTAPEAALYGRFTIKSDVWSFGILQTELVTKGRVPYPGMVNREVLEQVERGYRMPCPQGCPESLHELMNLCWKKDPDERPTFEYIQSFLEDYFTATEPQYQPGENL
Serine/threonine-protein kinase N2 (Homo sapiens), sequence (Q16513 whole entry, looked up): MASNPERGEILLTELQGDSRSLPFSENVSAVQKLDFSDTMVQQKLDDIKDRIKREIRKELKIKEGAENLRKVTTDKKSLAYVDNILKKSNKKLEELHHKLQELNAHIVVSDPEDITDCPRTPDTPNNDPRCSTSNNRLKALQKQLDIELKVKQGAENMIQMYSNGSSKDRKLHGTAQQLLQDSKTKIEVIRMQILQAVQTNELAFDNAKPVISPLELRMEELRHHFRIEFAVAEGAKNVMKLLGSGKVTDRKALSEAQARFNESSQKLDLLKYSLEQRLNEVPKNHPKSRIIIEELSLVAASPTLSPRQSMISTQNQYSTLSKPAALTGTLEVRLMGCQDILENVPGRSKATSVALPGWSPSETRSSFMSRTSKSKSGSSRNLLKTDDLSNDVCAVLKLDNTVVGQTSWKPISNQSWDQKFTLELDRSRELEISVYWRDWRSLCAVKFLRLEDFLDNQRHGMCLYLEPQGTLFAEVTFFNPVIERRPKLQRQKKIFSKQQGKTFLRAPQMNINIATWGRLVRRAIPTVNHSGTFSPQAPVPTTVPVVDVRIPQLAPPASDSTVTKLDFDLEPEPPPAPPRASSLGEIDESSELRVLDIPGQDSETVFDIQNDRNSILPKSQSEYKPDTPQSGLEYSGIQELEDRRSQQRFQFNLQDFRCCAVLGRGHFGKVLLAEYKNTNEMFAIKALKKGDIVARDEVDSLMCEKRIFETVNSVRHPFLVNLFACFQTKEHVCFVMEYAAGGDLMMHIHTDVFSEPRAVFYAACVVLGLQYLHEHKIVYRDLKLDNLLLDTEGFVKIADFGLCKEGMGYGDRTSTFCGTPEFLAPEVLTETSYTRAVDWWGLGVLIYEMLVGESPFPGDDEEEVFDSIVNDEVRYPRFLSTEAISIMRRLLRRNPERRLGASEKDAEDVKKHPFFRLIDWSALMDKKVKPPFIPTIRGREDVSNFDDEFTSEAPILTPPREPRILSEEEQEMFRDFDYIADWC

- Activity [1]: 86%
Structure (SMILES): NCCNS(=O)(=O)c1ccc(Cl)c2ccncc12

- Activity [2]: 100%
- Activity [3]: 52%
- Activity [4]: 78%
- Activity [5]: 85%
- Activity [6]: 98%
- Activity [7]: 81%
Structure (SMILES): Cn1cc(C2=C(c3ccc(Cl)cc3Cl)C(=O)NC2=O)c2ccccc21

- Activity [8]: 97%
- IC50 [9]: 510 nM (antagonist)
- Activity [10]: 72%
- Activity [11]: 85%
- IC50 (Ephrin type-A receptor 2): 760 nM (antagonist)
- Activity [12]: 76%
- Activity [13]: 61%
- Activity [14]: 92%
- Activity [15]: 92%
- Activity [16]: 49%
Structure (SMILES): Cc1ccc(-c2c(C(=O)CF)n(CCCO)c3ncnc(N)c23)cc1
